According to patent publication US8354522B2, “Immunostimulatory oligoribonucleotides” (Coley Pharmaceutical GmbH, priority 2005, dated 2013):

Experiments:
Format in all cases: cell-based
[1] = test system: CD123+ purified pDC; assay: CD86 surface marker expression upon human pDC stimulation (FACS); conditions: 1 μM ORN complexed to 25 μg/ml DOTAP, 16 h
Experimental: FIG. 10 is a series of graphs showing surface marker expression upon human pDC stimulation with AU-rich or GU-rich ORN. CD123+ purified pDC (FIGS. 10a and 10b) or isolated monocytes (FIG. 10c) were incubated with 1 μM ORN complexed to 25 μg/ml DOTAP or DOTAP alone (FIG. 10a) or indicated amounts of ORN complexed to DOTAP or DOTAP alone (FIGS. 10b-10c). After 16 h cells were harvested and stained with CD123, CD11c and HLA-DR antibodies (FIGS. 10a and 10b) or CD14 and CD19 (FIG. 10c). Cell surface marker activation was measured by CD86 (FIGS. 10a and 10b) or CD80 (FIG. 10c) expression. […] FIG. 10b is a graph illustrating that CD86 surface marker expression upon human pDC stimulation is dose-dependent.
CD123+ purified pDC (FIGS. 10a and 10b) or isolated monocytes (FIG. 10c) were incubated with 1 μM ORN complexed to 25 μg/ml DOTAP or DOTAP alone (FIG. 10a) or indicated amounts of ORN complexed to DOTAP or DOTAP alone (FIGS. 10b-10c). After 16 h cells were harvested and stained with CD123, CD11c and HLA-DR antibodies (FIGS. 10a and 10b) or CD14 and CD19 (FIG. 10c). […] This activation was determined to be dose-dependent (FIG. 10b).

[2] = target: T1, human TLR8 (Homo sapiens, UniProt Q9NR97); assay: NFκB-luciferase reporter in HEK-293 cells stably transfected with human TLR8; conditions: HEK-293 with human TLR8, ORN complexed to DOTAP, 16 hours
T1 construct: expressed in transfected cells
T1 sequence (Q9NR97 27-1041): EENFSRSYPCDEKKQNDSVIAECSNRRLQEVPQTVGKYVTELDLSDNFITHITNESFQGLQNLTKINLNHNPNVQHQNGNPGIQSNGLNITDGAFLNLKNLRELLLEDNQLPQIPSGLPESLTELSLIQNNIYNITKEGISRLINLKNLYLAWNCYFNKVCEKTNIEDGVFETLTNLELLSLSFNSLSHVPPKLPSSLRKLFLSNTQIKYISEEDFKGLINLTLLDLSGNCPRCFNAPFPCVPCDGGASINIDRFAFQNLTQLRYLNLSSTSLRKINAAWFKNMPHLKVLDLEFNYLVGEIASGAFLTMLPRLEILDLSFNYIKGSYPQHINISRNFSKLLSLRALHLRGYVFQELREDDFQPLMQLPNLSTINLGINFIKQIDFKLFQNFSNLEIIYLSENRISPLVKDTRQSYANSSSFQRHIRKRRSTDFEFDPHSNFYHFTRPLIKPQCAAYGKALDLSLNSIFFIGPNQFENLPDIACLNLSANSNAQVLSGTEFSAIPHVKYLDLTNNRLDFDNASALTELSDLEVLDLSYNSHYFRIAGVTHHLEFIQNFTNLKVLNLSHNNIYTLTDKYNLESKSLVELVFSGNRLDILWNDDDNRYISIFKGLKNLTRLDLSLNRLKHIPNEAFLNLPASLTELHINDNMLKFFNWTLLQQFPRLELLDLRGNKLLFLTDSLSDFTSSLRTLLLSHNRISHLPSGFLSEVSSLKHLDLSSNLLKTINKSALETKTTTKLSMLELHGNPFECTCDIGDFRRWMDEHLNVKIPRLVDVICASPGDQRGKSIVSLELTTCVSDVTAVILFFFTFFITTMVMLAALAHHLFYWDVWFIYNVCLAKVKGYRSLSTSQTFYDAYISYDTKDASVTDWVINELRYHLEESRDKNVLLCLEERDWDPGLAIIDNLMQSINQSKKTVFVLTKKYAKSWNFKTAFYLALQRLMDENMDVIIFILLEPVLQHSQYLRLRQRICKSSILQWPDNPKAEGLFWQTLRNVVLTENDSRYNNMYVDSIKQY
Experimental: Stable-transfected HEK-293 cells with NFκB-luciferase read out reporter and human TLR8 were stimulated for 16 hours with indicated ORN. After 16 hours the supernatants were removed, the cells lysed and the luciferase activity or cytokine level was measured. FIGS. 9a and 9b show fold induction of NFκB-luciferase after stimulus.
Unresponsive HEK-293 cells were stably transfected with human TLR3 or TLR8 expression plasmid and NFκB-luciferase reporter gene construct. Cells were incubated with the indicated ORN sequences (10 μM complexed to 50 μg/ml DOTAP) or control stimuli (10 μM R-848, 50 μg/ml polyIC, 3.3 μM ODN 10103 or 50 μg/ml DOTAP) for 16 hours. NFκB-activation was measured by assaying luciferase activity. Results are given as fold induction above background (medium). One representative experiment of 6 independent repetitions is presented (FIG. 9a).
Stable-transfected HEK-293 cells expressing human TLR8 were stimulated with indicated concentrations of ORN complexed to DOTAP (50 μg/ml->1/3 dilution) or DOTAP alone (50 μg/ml->1/3 dilution) for 16 hours. NFκB activation was measured by assaying luciferase activity. Results are given as fold induction above background (medium). […]
Unresponsive HEK-293 cells were stably transfected with human TLR8 expression plasmid and NFκB-luciferase reporter gene construct. […] NFκB-activation was measured by assaying luciferase activity. […]

[3] = test system: Splenocytes from 3 Sprague-Dawley rats; assay: TNF-alpha production by rat splenocytes (ELISA); conditions: pooled rat splenocytes, ORN complexed to 62.5 μg/ml DOTAP with 1/5 dilution, 20 hours
Experimental: Splenocytes from 3 Sprague-Dawley rats were pooled and stimulated with indicated concentrations of SEQ ID NO:21, SEQ ID NO:13 (both complexed to 62.5 μg/ml DOTAP with 1/5 dilution), R-848 or DOTAP alone (62.5 μg/ml->1/5 dilution). Supernatants were harvested after 20 hours and TNF-alpha levels were measured by ELISA.

Row | Substance | CD86 surface marker expression [1] | human TLR8 signaling (NFκB-luciferase fold induction) [2] | TNF-alpha production [3]
1 | U*U*A*U*U*A*U*U*A*U*U*A*U*U*A*U*U*A*U*U (UUAUUAUUAUUAUUAUUAUU; chemistry not fully specified) [SEQ ID NO: 13] | very little CD86 activation | Stimulate Specific Human TLR8 Signaling in a Dose Dependent Manner | no TNF-alpha production
2 | U*U*G*U*U*G*U*U*G*U*U*G*U*U*G*U*U*G*U*U (UUGUUGUUGUUGUUGUUGUU; listed as RNA, chemistry not fully specified) [SEQ ID NO: 21] | significant CD86 activation | Stimulate Specific Human TLR8 Signaling in a Dose Dependent Manner | resulted in TNF-alpha production
